Columns and labels:
hBMEC endothelial cells = experiment: Sprouting assay; format: cell-based; details: 0.5 μM and 1 μM, 24 h
Description: The brain microvascular endothelial cell line hBMEC was purchased from ScienCell Research Laboratory (Carlsbad, Calif., USA). HBMEC cells were suspended in culture medium containing 20% methylcellulose, seeded at a density of 1000 cells/well, into nonadhesive 96 well plate and cultured at 37° C. (5% CO2, 100% humidity). Under these conditions, suspended endothelial cells (EC) form spontaneously within 4 h a single cell aggregate known as spheroid. Spheroids were harvested within 24 h and used for in gel sprouting angiogenesis experiments. Briefly, spheroids were seeded in micro-slides coated with Matrigel and images were observed after 24 h, captured by an inverted microscope and analysed with the NIH Image J analysis system. For statistical analysis, number of sprouts per spheroid, with a minimum of 10 spheroids for each treatment, was considered.

[1] = In vivo pharmacokinetics / biodistribution; set-up: species or system mice; details: administered compound itself, 50 mg/Kg i.p., BALB/C mice
Description: The animal protocols used were reviewed and approved by the Animal Care and Ethics Committee of the Universita{grave over ( )} degli Studi di Siena, Italy. Male BALB/C mice (weight 20-30 g) were obtained from Charles River (Milan, Italy). […] The blood, previously heparinized, was centrifuged at 4000 rpm for 20 minutes to separate the plasma fraction and then 500 μl were collected in a test tube. […] Samples were centrifuged at 4000 rpm for 20 minutes, the supernatant was recovered, dried under vacuum and analyzed by LC-UV-MS. Brain was homogenized using a glass/glass Potter-Elvehjem homogenizer in presence of Tris-HCl buffer (50 mM) and compounds were recovered using 7 mL of ACN then treated as previously described for blood samples.

U251 cells = experiment: Proliferation assay on U251 cells; format: cell-based, human
Description: (§1) U87 and U251 cells were purchased from European Collection of Cell Cultures (ECACC, Salisbury, UK) and were cultured in DMEM medium supplemented with 10% Foetal Bovine Serum. In order to determine antiproliferative effect of drugs tumor cells were seeded at 2×10^5 cells/ml density and treated with compounds at indicated concentrations. The cultures were maintained at 37° C. in 5% v/v CO2 for 72 h. Cell number and viability were evaluated by Trypan blue exclusion test. Viable cells were expressed as percentage respect to cells treated with vehicle (=100%). Mean and SD values of at least three different experiments are shown.
(§2) U87 and U251 cells were purchased from European Collection of Cell Cultures (ECACC, Salisbury, UK) and were cultured in DMEM medium supplemented with 10% Foetal Bovine Serum. In order to determine antiproliferative effect of drugs tumor cells were seeded at 2×10^5 cells/ml density and treated with compounds at indicated concentrations. The cultures were maintained at 37° C. in 5% v/v CO2 for 72 h. Cell number and viability were evaluated by Trypan blue exclusion test. Viable cells were expressed as percentage respect to untreated cells (=100%/). Mean and SD values of at least three different experiments are shown.

PAMPA, BBB permeability = details: Membrane Retention, BBB
SH-SY5Y cells = experiment: Cell cycle analysis; format: cell-based, human
Description: Cells (SH-SY5Y) were seeded in 60-mm petri dishes at a density of 3×10^5. After treatment and subsequent incubation for 24 h at 37° C. and 5% CO2 in humidified atmosphere, harvested cells were washed and fixed overnight with 70% ethanol. Then, ethanol was removed by centrifugation and the cells resuspended in PBS, stained with 50 μg/mL propidium iodide (PI) at 4° C. for 30 min in the dark. Stained cells were analyzed by Tali image based cytometer (Life Technologies, Carlsbad, Calif., USA) counting 20 fields for sample and exported fcs raw data were elaborated by Flowing software (v. 2.5.0, by Perttu Terho, University of Turku, Finland).

U87 cells [2] = experiment: Proliferation assay on U87 cells; format: cell-based, human
Description: as §1, §2

[3] = PAMPA, intestinal (GI) permeability; details: Membrane Retention, GI
Description: Donor solution (0.5 mM) was prepared by diluting 1 mM dimethylsulfoxide (DMSO) compound stock solution using phosphate buffer (pH 7.4, 0.025 M). […] Donor solution (150 μL) was added to each well of the filter plate. To each well of the acceptor plate were added 300 μL of solution (50% DMSO in phosphate buffer). All compounds were tested in three different plates on different days. The sandwich was incubated for 5 h at room temperature under gentle shaking. After the incubation time, the plates were separated, and samples were taken from both receiver and donor sides and analyzed using LC with UV detection at 280 nm.
Permeability (Papp) for PAMPA was calculated according to the following equation, obtained from Wohnsland and Faller^27 and Sugano et al.^28 equation with some modification in order to obtain permeability values in cm s^−1,
Drug concentration is estimated by using the peak area integration. Membrane retentions (%) were calculated according to the following equation:
where r is the ratio between drug concentration in the acceptor and equilibrium concentration, D, A, and Eq represented drug concentration in the donor, acceptor and equilibrium solution, respectively.
Donor solution of tested compounds (0.5 mM) was prepared by diluting 1 mM dimethylsulfoxide (DMSO) compound stock solution using phosphate buffer (pH 7.4, 25 mM). […] Donor solution (150 μL) was added to each well of the filter plate. To each well of the acceptor plate were added 300 μL of solution (50% DMSO in phosphate buffer). Compounds was tested in three different plates on different days. The sandwich was incubated for 5 h at room temperature under gentle shaking.
Permeability (Papp) for PAMPA was calculated according to the following equation, obtained from Wohnsland and Faller and Sugano et al.^27, 28.
Drug concentration is estimated by using the peak area integration. Membrane retention (%) was calculated according to the following equation:

U87 cells [4] = experiment: Orthotopic mouse model of GBM; format: in vivo, mice; details: 50 mg/kg three times per week for 4 weeks
Description: Survival curves (days) of orthotopic mouse model of GBM.
Male CD1 nude mice (Charles River, Milan, Italy) were maintained under the guidelines established by University of L'Aquila, Medical School and Science and Technology School Board Regulations, complying with the Italian government regulations for the use of laboratory animals. Before any invasive manipulation, mice were anesthetized with a mixture of ketamine (25 mg/ml)/xylazine (5 mg/ml). Tumor grafts were obtained by injecting with a Hamilton syringe mounted on a stereotactic instrument, 2*10^3 U87 cells resuspended in 2 microL PBS (David Kopf Instruments, CA, USA). The cells were injected after the exposition of periosteal cranic site and the drimming of a 1 mm diameter hole localized at 4 mm from striatum and with a depth of 4 mm. The wound was treated with antibiotics and was surgically sutured.

[5] = system: SH-SY5Y neuroblastoma cells; experiment: SH-SY5Y xenograft mouse model; format: in vivo, mice
Description: Male CD1 nude mice (Charles River, Milan, Italy) were maintained under the guidelines established by the inventors' Institution (University of L'Aquila, Medical School and Science and Technology School Board Regulations, complying with the Italian government regulation n. 116 Jan. 27 1992 for the use of laboratory animals). Before any invasive manipulation, mice were anesthetized with a mixture of ketamine (25 mg/mL)/xylazine (5 mg/mL). Tumor grafts were obtained by injecting s.c. 1×10^6 SH-SY5Y cells in 100 μL of 12 mg/mL Matrigel (Becton Dickinson, Franklin Lakes, N.J., USA). Tumor growth was monitored daily by measuring the average tumor diameter. The tumor volume was expressed in mm^3 according to the formula 4/3πr^3.

human fibroblast wi38 = experiment: TGF-beta induced myofibroblast differentiation, Western blot; format: cell-based; details: Si306 1 μM
Description: FIG. 17. Western blot analysis of PDGFR-beta and alpha-SMA expression.
Total cell lysates were obtained by incubating cells in a lysis buffer containing 1% triton, 0.1% SDS, 2 mM CaCl2, 10 mg/ml orthovanadate, and 1× protease inhibitors cocktail (Sigma, St. Louis, […]., USA). Protein content was determined using the Protein Assay Kit 2 (Bio-Rad Laboratories, Hercules, Calif., USA). Sixty micrograms of proteins were electrophoresed in 10% SDS-polyacrylamide gel. After electrophoresis gels were placed onto Trans-Blot Turbo mini nitrocellulose transfer pack and transferred using Trans-Bolt Turbo Transfer System (Bio-Rad Laboratories, Hercules, Calif., USA). The membrane was incubated with 1 μg/ml primary antibody and then with appropriate horseradish peroxidase-conjugated secondary antibodies. Primary antibodies β-actin, PDGFR-beta, alpha-SMA were purchased from Cell Signaling Technology; Protein bands were visualized using a chemiluminescent detection system (Thermo Scientific, Rockford, Ill., USA) and signals were digitally acquired by Chemidoc XRS system (Bio-Rad Laboratories).

ClC(Cn1ncc2c(Nc3cccc(Br)c3)nc(SCCN3CCOCC3)nc21)c1ccccc1 (stereo not drawn) [Si306, N-(3-Bromophenyl)-1-(2-chloro-2-phenylethyl)-6-[(2-morpholin-4-ylethyl)thio]-1H-pyrazolo[3,4-d]pyrimidin-4-amine]
angiogenesis, number of sprouts per spheroid (hBMEC endothelial cells): significant reduction of angiogenesis
Quantity of Compound, BLOOD ([1]; 30′): 10.2 ± 4.82 nmol of compound/g of tissue
Quantity of Compound, BLOOD ([1]; 4 h): 2.6 ± 1.31 nmol of compound/g of tissue
Quantity of Compound, BLOOD ([1]; 8 h): 2.4 ± 0.29 nmol of compound/g of tissue
Quantity of Compound, BLOOD ([1]; 24 h): 1.1 ± 0.65 nmol of compound/g of tissue
Quantity of Compound, BRAIN ([1]; 15′): 0.3 ± 0.18 nmol of compound/g of tissue
Quantity of Compound, BRAIN ([1]; 24 h): 2.3 ± 0.70 nmol of compound/g of tissue
reduction of the total cell number vs control (U251 cells; U251, 5 μM, 72 h): about 50%
antiproliferative effect in combination with mitomycin C (U251 cells; U251, 72 h, 1 μM Si306 plus increasing mitomycin C): synergic antiproliferative effect
PAMPA BBB (MR %) (PAMPA, BBB permeability): (41.0) %
apoptosis, treated cells (SH-SY5Y cells; 10 μM): about 50%
accumulation of cells in the G1 phase of cell cycle (SH-SY5Y cells; 0.1-10 μM, starting from 0.1 μM): significant and dose-dependent accumulation
reduction of the total cell number vs control (U87 cells [2]; U87, 5 μM, 72 h): about 50%
dead cells (U87 cells [2]; U87, 30 μM, 72 h): more than 80%
antiproliferative effect in combination with mitomycin C (U87 cells [2]; U87, 72 h, 1 μM Si306 plus increasing mitomycin C): synergic antiproliferative effect
PAMPA GI (MR %) [3]: (46.1) %
survival of mice respect to control group (U87 cells [4]): significant ability in prolonging survival
tumour growth inhibition ([5]; 50 mg/kg): significantly inhibited
signs of distress or weight loss ([5]; 50 mg/kg daily oral): did not shown signs of distress or weight loss
reduction in mean tumor volume compared to placebo ([5]; 50 mg/kg daily oral, 60 days): more than 50%
expression of PDGFR and alpha-SMA downstream of TGF-beta (human fibroblast wi38): able to block the expression of PDGFR and alpha-SMA
